Where two headings read alike, the source gives them in different places.
Columns and labels:
[1] = Solubility of Compound 1 in various solvents; type: physicochemical
Method: Solubility of >10 mg/mL was only observed in DMSO, NMP and MeOH:DCM 1:3 at 50° C.

[2] = target: plasma kallikrein (Homo sapiens, UniProt P03952); conditions: in vitro kallikrein kinase assay, reported in the '129 publication; cited from earlier work
Chain of plasma kallikrein (P03952 20-638, species assumed): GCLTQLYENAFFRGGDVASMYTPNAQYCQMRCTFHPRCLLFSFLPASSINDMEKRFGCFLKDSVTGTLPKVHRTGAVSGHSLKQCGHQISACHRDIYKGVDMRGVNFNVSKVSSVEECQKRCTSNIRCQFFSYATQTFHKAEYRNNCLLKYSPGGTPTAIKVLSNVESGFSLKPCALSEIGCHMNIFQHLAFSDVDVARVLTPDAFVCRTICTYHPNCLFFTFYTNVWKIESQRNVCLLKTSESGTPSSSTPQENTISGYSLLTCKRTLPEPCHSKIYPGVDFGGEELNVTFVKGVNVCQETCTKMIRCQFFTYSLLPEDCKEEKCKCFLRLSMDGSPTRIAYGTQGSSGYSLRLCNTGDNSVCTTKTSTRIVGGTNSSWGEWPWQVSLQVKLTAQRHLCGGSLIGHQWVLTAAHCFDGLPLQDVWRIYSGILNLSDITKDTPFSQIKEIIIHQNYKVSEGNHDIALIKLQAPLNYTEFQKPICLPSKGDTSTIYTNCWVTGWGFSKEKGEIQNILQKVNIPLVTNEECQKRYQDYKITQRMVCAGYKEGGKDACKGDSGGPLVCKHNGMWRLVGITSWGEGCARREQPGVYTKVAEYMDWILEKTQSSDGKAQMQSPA

With `O=C(NCc1ncn2ccc(Cl)c(F)c12)c1cn(Cc2cn3cc(C4CC4)ccc3n2)nn1` [Compound 1, N-((7-chloro-8-fluoroimidazo[1,5-a]pyridin-1-yl)methyl)-1-((6-cyclopropylimidazo[1,2-a]pyridin-2-yl)methyl)-1H-1,2,3-triazole-4-carboxamide] the solubility ([1]; 25 °C, organic solvent or mixture, all solvents assessed, Compound 1 as synthesized in Example 1, read-out: solubility at 25° C.) was less than 10000 µg/mL, the solubility ([1]; Acetone, 50 °C, organic solvent or mixture, read-out: Solubility at 50° C.) was less than 10000 µg/mL and the solubility ([1]; Acetone:H2O 9:1, 50 °C, organic solvent or mixture, read-out: Solubility at 50° C.) was less than 10000 µg/mL. It also gave a solubility ([1]; Acetonitrile, 50 °C, organic solvent or mixture, read-out: Solubility at 50° C.) of less than 10000 µg/mL, a solubility ([1]; Acetonitrile:H2O 1:1, 50 °C, aqueous with cosolvent or surfactant or cyclodextrin, read-out: Solubility at 50° C.) of less than 10000 µg/mL and a solubility ([1]; DCM, 50 °C, organic solvent or mixture, read-out: Solubility at 50° C.) of less than 10000 µg/mL. The solubility ([1]; DMAC, 50 °C, organic solvent or mixture, read-out: Solubility at 50° C.) was less than 10000 µg/mL, the solubility ([1]; DMF, 50 °C, organic solvent or mixture, read-out: Solubility at 50° C.) was less than 10000 µg/mL and the “Solubility at 50° C.” value ([1]; DMSO) was greater than 10000 µg/mL. For the same compound, the solubility ([1]; DMSO, 50 °C, organic solvent or mixture, read-out: Solubility at 50° C.) was greater than 10000 µg/mL, the solubility ([1]; Ethanol, 50 °C, organic solvent or mixture, read-out: Solubility at 50° C.) was less than 10000 µg/mL and the solubility ([1]; Ethyl acetate, 50 °C, organic solvent or mixture, read-out: Solubility at 50° C.) was less than 10000 µg/mL. The solubility ([1]; IPA, 50 °C, organic solvent or mixture, read-out: Solubility at 50° C.) was less than 10000 µg/mL, the solubility ([1]; IPAC, 50 °C, organic solvent or mixture, read-out: Solubility at 50° C.) was less than 10000 µg/mL and the solubility ([1]; MEK, 50 °C, organic solvent or mixture, read-out: Solubility at 50° C.) was less than 10000 µg/mL. The solubility ([1]; MIBK, 50 °C, organic solvent or mixture, read-out: Solubility at 50° C.) was less than 10000 µg/mL, the solubility ([1]; MeOH:Chlorobenzene (1:1), 50 °C, organic solvent or mixture, read-out: Solubility at 50° C.) was less than 10000 µg/mL and the “Solubility at 50° C.” value ([1]; MeOH:DCM 1:3) was greater than 10000 µg/mL. The solubility ([1]; MeOH:DCM 1:3, 50 °C, organic solvent or mixture, read-out: Solubility at 50° C.) was greater than 10000 µg/mL, the solubility ([1]; MeOH:H2O 9:1, 50 °C, organic solvent or mixture, read-out: Solubility at 50° C.) was less than 10000 µg/mL and the solubility ([1]; MeOH:Toluene (1:1), 50 °C, organic solvent or mixture, read-out: Solubility at 50° C.) was less than 10000 µg/mL. For the same compound, the solubility ([1]; MeOH:anisole (1:1), 50 °C, organic solvent or mixture, read-out: Solubility at 50° C.) was less than 10000 µg/mL, the solubility ([1]; Methanol, 50 °C, organic solvent or mixture, read-out: Solubility at 50° C.) was less than 10000 µg/mL and the “Solubility at 50° C.” value ([1]; NMP) was greater than 10000 µg/mL. For the same compound, the solubility ([1]; NMP, 50 °C, organic solvent or mixture, read-out: Solubility at 50° C.) was greater than 10000 µg/mL, the solubility ([1]; TBME, 50 °C, organic solvent or mixture, read-out: Solubility at 50° C.) was less than 10000 µg/mL and the solubility ([1]; THF, 50 °C, organic solvent or mixture, read-out: Solubility at 50° C.) was less than 10000 µg/mL. It also gave a solubility ([1]; THF:H2O 9:1, 50 °C, organic solvent or mixture, read-out: Solubility at 50° C.) of less than 10000 µg/mL, a solubility ([1]; Toluene, 50 °C, organic solvent or mixture, read-out: Solubility at 50° C.) of less than 10000 µg/mL and a solubility ([1]; n-heptane, 50 °C, organic solvent or mixture, read-out: Solubility at 50° C.) of less than 10000 µg/mL. The solubility ([1]; t-BuOH, 50 °C, organic solvent or mixture, read-out: Solubility at 50° C.) was less than 10000 µg/mL, the solubility ([1]; t-BuOH:H2O 1:1, 50 °C, aqueous with cosolvent or surfactant or cyclodextrin, read-out: Solubility at 50° C.) was less than 10000 µg/mL and the EC50 [2] was less than 1 nM.

From patent US20230167132A1, “FORMS AND COMPOSITIONS OF INHIBITORS OF PLASMA KALLIKREIN” (Takeda Pharmaceutical Company Limited, priority 2020, published 2023)
